Results reported in patent US10570179B2, “Substituted urea depsipeptide analogs as activators of the CLPP endopeptidase” (priority 2016, dated 2020).
Numbered stars: 1 amine (or outer) side, 2 acyl side, 3 side chain; on linkers, the order of the positions; unused ones are H or OH. Bridge positions count the residues as written; N and C are the ends. Square brackets hold non-standard residues; d marks the D form. Peptide text beside a SMILES is read from it. * marks the point of attachment. Piperazine(2S-CO,4-Me) = CN1CCN[C@H](C(=O)O)C1; Phe(3-Me) = Cc1cccc(C[C@H](N)C(=O)O)c1; NH(4-Cl-2-F-phenyl) = Fc1cc(Cl)ccc1N*; Pro(4R-Me) = C[C@H]1CN[C@H](C(=O)O)C1; Propanoyl(3-NMe2) = CN(C)CCC(=O)*; Hyp = O=C(O)[C@@H]1C[C@@H](O)CN1; aThr = C[C@H](O)[C@H](N)C(=O)O; Pip = O=C(O)[C@@H]1CCCCN1; CO = O=C([*:1])[*:2]

Columns and labels:
S. aureus ClpP (Sa-ClpP) = molecular target: T1, S. aureus ClpP (Sa-ClpP) (Staphylococcus aureus, UniProt Q2G036); assay: Casein-BODIPY digestion assay (ClpP activation); assay type: biochemical
T1 construct: made in house; host or cells: E. coli BL21 (DE3)

S. aureus ΔClpP = assay: Minimal inhibitory concentration, microbroth dilution; assay type: cell-based, Staphylococcus aureus; conditions: MIC; ClpP inactivated
Summary of the method: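 Susceptibility testing used the CLSI dilution standard, with bacteria at ~10^5 cfu/mL exposed to a two-fold compound series beginning at 200 μM final. The endpoint is the lowest concentration showing no growth after overnight incubation (37 °C, aerobic).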

Plasma stability assay = assay type: in vitro ADME, mouse
Procedure: The plasma stability property of early drug discovery compounds can influence the in vivo efficacy of the test compounds/drugs. Human and/or mouse plasma degradation is determined using multiple time points to monitor the rate of disappearance of the parent compound during incubation.
Sample preparation for plasma stability was modified from Di et al. (2005) Int. J. Pharm. 297(1-2): 110-119. A set of incubation times of 0, 3, 24, and 48 hour were used. DMSO stock solutions of test compounds were prepared at 10 mM concentration. 1.8 μL of each test compound was each added directly to 1.8 mL of human/mouse plasma to get the final concentration of 10 μM. This compound/matrix was mixed and 70 μL was transferred to 8 time points plates (each in triplicate wells). For the Time 0 plate, 210 μL of cold acetonitrile with internal standard (4 μg/mL warfarin) was added to each well and no incubation needed. For other seven time points' plate, the plate was incubated at 37° C. for required time, followed by quenching of the reaction by adding 210 μL of cold acetonitrile with internal standard (4 μg/ml warfarin) to each well. All of the plates were sealed and mixed well at 600 rpm for 10 min and were centrifuged at 4000 rpm for 20 min. The supernatants (120 μL) were transferred to analytical plates for analysis by LCMS. Conditions for Waters ACQUITY-UPLC-MS-UV system was described separately. The plasma stability was evaluated via the half-life from least-squares fit of the multiple time points based on first-order kinetics.

T1 sequence (Q2G036 whole entry): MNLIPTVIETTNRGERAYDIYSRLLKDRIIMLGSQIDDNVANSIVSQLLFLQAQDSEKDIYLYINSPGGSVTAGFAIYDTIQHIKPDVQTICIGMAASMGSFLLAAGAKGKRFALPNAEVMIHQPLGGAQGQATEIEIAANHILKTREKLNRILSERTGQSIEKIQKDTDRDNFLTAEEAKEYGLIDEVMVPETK

| SMILES | EC50 (S. aureus ClpP (Sa-ClpP)) [nM] | Minimal Inhibitory Concentrations (μM) S. aureus ΔClpP (S. aureus ΔClpP) [µM] | Mouse (Plasma stability assay; mouse, 10 μM) [h] | Mouse (Plasma stability assay; plasma stability half-life, mouse plasma, 37° C.) [h] |
| --- | --- | --- | --- | --- |
| Cc1cccc(C[C@H](NC(=O)Nc2ccc(Cl)cc2F)C(=O)N[C@H]2COC(=O)[C@@H]3C[C@@H](C)CN3C(=O)[C@H](C)NC(=O)[C@@H]3CCCCN3C(=O)[C@@H]3CCCN3C2=O)c1 [Compound 8, (S)-2-(3-(4-CHLORO-2-FLUOROPHENYL)UREIDO)-N-((2R,6S,8AS,14AS,20S,23AS)-2,6-DIMETHYL-5,8,14,19,23-PENTAOXOOCTADECAHYDRO-1H,5H,14H,19H-PYRIDO[2,1-I]DIPYRROLO[2,1-C:2′,1′-L][1]OXA[4,7,10,13]TETRAAZACYCLOHEXADECIN-20-YL)-3-(M-TOLYL)PROPANAMIDE] | 280 ± 20 | >20 | >50 |  |
| Cc1cccc(C[C@H](NC(=O)Nc2ccc(Cl)cc2F)C(=O)N[C@H]2COC(=O)[C@@H]3C[C@@H](C)CN3C(=O)[C@H](C)NC(=O)[C@@H]3CCCCN3C(=O)[C@@H]3C[C@@H](O)CN3C2=O)c1 [Compound 10] | 380 ± 30 | >20 | >50 |  |
| Cc1cccc(C[C@H](NC(=O)Nc2ccc(Cl)cc2F)C(=O)N[C@@H]2C(=O)N3CCC[C@H]3C(=O)N3CCN(C)C[C@H]3C(=O)N[C@@H](C)C(=O)N3C[C@H](C)C[C@H]3C(=O)O[C@H]2C)c1 [Compound 11, (S)-2-(3-(4-CHLORO-2-FLUOROPHENYL)UREIDO)-N-((6AS,12S,13S,15AS,17R,21S,23AS)-2,13,17,21-TETRAMETHYL-6,11,15,20,23-PENTAOXOOCTADECAHYDRO-2H,6H,11H,15H-PYRAZINO[2,1-I]DIPYRROLO[2,1-C:2′,1′-L][1]OXA[4,7,10,13]TETRAAZACYCLOHEXADECIN-12-YL)-3-(M-TOLYL)PROPANAMIDE] ({NH(4-Cl-2-F-phenyl)-CO}-[Phe(3-Me)][aThr]P[Piperazine(2S-CO,4-Me)]A[Pro(4R-Me)]; ester 2-C) | 290 ± 10 | >20 | 36.62 |  |
| Cc1cccc(C[C@H](NC(=O)Nc2ccc(Cl)cc2F)C(=O)N[C@H]2COC(=O)[C@@H]3C[C@@H](C)CN3C(=O)[C@H](C)NC(=O)[C@@H]3CCCCN3C(=O)[C@@H]3C[C@H](N)CN3C2=O)c1 [Compound 12, (S)—N-((2R,6S,8AS,14AS,16S,20S,23AS)-16-AMINO-2,6-DIMETHYL-5,8,14,19,23-PENTAOXOOCTADECAHYDRO-1H,5H,14H,19H-PYRIDO[2,1-I]DIPYRROLO[2,1-C:2′,1′-L][1]OXA[4,7,10,13]TETRAAZACYCLOHEXADECIN-20-YL)-2-(3-(4-CHLORO-2-FLUOROPHENYL)UREIDO)-3-(M-TOLYL)PROPANAMIDE] | 580 ± 20 | >20 | 18.63 |  |
| Cc1cccc(C[C@H](NC(=O)Nc2ccc(Cl)cc2F)C(=O)N[C@@H]2C(=O)N3C[C@H](OC(=O)CCN(C)C)C[C@H]3C(=O)N3CCCC[C@H]3C(=O)N[C@@H](C)C(=O)N3C[C@H](C)C[C@H]3C(=O)O[C@H]2C)c1 [Compound 46, (2R,6S,8AS,14AS,16R,20S,21S,23AS)-20-((S)-2-(3-(4-CHLORO-2-FLUOROPHENYL)UREIDO)-3-(M-TOLYL)PROPANAMIDO)-2,6,21-TRIMETHYL-5,8,14,19,23-PENTAOXOOCTADECAHYDRO-1H,5H,14H,19H-PYRIDO[2,1-I]DIPYRROLO[2,1-C:2′,1′-L][1]OXA[4,7,10,13]TETRAAZACYCLOHEXADECIN-16-YL 3-(DIMETHYLAMINO)PROPANOATE] ({NH(4-Cl-2-F-phenyl)-CO}-[Phe(3-Me)][aThr][Hyp](Propanoyl(3-NMe2))[Pip]A[Pro(4R-Me)]; ester 2-C) |  | >20 | 0.49 |  |
| Cc1ccc(NC(=O)N[C@@H](Cc2cccc(C)c2)C(=O)N[C@H]2COC(=O)[C@@H]3CCCN3C(=O)[C@H](C)NC(=O)[C@@H]3CCCCN3C(=O)[C@@H]3C[C@@H](O)CN3C2=O)cc1 [Compound 49, (S)—N-((6S,8AS,14AS,16R,20S,23AS)-16-HYDROXY-6-METHYL-5,8,14,19,23-PENTAOXOOCTADECAHYDRO-1H,5H,14H,19H-PYRIDO[2,1-I]DIPYRROLO[2,1-C:2′,1′-L][1]OXA[4,7,10,13]TETRAAZACYCLOHEXADECIN-20-YL)-3-(M-TOLYL)-2-(3-(P-TOLYL)UREIDO)PROPANAMIDE] |  | >20 |  | 22.75 |
